Measurements published in patent US20140005163A1 (NOVARTIS AG, priority 2010, published 2014).
pIC50: −log10 of the molar value.

Columns and labels:
[1] = target: T1, mTOR (Homo sapiens, UniProt P42345); assay: Biochemical assay for m-TOR by TR-FRET; conditions: 8 μM ATP, 400 nM GFP-4EBP1, 0.5 nM mTOR
T1 construct: purchased Invitrogen Corporation (Carlsbad/CA, USA) PV4753
Method in brief: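 mTOR (0.5 nM final) phosphorylated GFP-4EBP1 (400 nM final) with ATP (8 μM final) at rt in 50 mM HEPES pH 7.5, 10 mM MnCl2, 50 mM NaCl, 1 mM EGTA, 1 mM DTT. EDTA stop with Tb3+-anti-p4EBP1 [pThr46] antibody (0.5 nM); TR-FRET read 15 min later.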

[2] = test system: S6 Ribosomal Protein phosphorylation Ser235/236 in TSC1 null mouse embryo fibroblast (MEF) cells; assay: Reverse protein array assay, S6 Ribosomal Protein phosphorylation Ser235/236 in TSC1 null MEF cells; format: cell-based; conditions: 1 h, pS6 ribosomal protein Ser235/236, 60 minutes incubation, read-out: p-S6 IC50
Method in brief: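 TSC1−/− MEFs, seeded and held ≥20 h at 37 °C/5% CO2, were exposed to 8-step serial compound dilutions (0.02% DMSO final; DMSO vehicle control) for 60 min at 37 °C. Cells were then lysed on ice for 10 min and lysates spotted onto reverse protein array chips.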

[3] = test system: PKB Ser473 phosphorylation in Rat1-myr-HA-p110 alpha cells; assay: Reverse protein array assay, PKB Ser473 phosphorylation in Rat1-myr-p110 alpha cells; format: cell-based; conditions: 0.5 h, pAkt Ser473, 30 minutes compound incubation, read-out: p-PKB IC50
Method in brief: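 Cells: Rat1-myr-HA-p110 alpha/beta/delta, seeded ≥20 h. Lysis on ice 10 min; reverse-phase protein array, 4 lysate dilutions; fluorescence read, relative intensity.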

T1 sequence (P42345 1360-2549 limits assumed): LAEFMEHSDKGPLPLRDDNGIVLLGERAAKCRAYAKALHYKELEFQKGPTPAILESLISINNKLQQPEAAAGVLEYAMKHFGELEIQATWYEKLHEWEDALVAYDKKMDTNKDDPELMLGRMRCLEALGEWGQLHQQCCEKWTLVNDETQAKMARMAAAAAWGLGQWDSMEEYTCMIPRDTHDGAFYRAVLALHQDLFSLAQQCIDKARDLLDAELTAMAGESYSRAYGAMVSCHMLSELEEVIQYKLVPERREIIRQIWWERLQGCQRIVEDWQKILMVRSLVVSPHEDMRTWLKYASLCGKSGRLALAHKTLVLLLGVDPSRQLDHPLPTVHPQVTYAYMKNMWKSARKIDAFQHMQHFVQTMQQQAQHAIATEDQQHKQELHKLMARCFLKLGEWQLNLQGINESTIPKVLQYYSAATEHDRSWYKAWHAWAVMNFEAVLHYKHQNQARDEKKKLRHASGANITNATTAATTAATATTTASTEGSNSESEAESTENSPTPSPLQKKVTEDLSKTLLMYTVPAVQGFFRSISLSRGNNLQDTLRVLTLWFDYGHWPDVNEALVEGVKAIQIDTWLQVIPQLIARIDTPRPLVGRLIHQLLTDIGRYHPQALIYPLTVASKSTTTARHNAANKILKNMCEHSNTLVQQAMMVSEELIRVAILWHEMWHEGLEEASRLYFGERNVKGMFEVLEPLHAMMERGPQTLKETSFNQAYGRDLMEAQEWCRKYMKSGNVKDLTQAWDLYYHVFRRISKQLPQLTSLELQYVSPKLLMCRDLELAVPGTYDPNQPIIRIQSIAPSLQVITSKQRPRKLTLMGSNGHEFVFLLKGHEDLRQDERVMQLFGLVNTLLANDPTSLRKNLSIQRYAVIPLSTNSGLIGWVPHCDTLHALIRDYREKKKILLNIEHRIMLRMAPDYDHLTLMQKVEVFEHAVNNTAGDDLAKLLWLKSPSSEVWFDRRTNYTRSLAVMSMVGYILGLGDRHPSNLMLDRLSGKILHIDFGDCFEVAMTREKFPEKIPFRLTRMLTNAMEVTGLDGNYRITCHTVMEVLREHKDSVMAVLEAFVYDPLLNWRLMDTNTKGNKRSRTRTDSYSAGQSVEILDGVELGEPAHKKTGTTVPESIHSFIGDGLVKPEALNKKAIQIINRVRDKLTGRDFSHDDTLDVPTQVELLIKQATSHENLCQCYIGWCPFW

Row | SMILES | pIC50 [1] | pIC50 [2] | pIC50 [3]
1 | Cc1nn(C)cc1-n1c(=O)n(C)c2cnc3ccc(-c4cnc(N)c(C(=O)NC(C)C)c4)cc3c21 [Example 225, 2-Amino-5-[1-(1,3-dimethyl-1H-pyrazol-4-yl)-3-methyl-2-oxo-2,3-dihydro-1H-imidazo[4,5-c]quinolin-8-yl]-N-isopropyl-nicotinamide] | 7.59 | 8.40 | 7.10
2 | COc1ncc(-c2ccc3ncc4c(c3c2)n(-c2cn(C(C)C)nc2C)c(=O)n4C)c(OC)n1 [Example 234.3, 8-(2,4-Dimethoxy-pyrimidin-5-yl)-1-(1-isopropyl-3-methyl-1H-pyrazol-4-yl)-3-methyl-1,3-dihydro-imidazo[4,5-c]quinolin-2-one] | 7.77 | 8.70 | 7.82
3 | Cc1nn(C)cc1-n1c(=O)n(C)c2cnc3ccc(-c4cnc(CO)c(Cl)c4)cc3c21 [Example 238, 8-(5-Chloro-6-hydroxymethyl-pyridin-3-yl)-1-(1,3-dimethyl-1H-pyrazol-4-yl)-3-methyl-1,3-dihydro-imidazo[4,5-c]quinolin-2-one] | 6.76 | 8.22 | 7.49
4 | CCOC(C)(C)c1cncc(-c2ccc3ncc4c(c3c2)n(-c2cn(C)nc2C)c(=O)n4C)c1 [Example 240, 1-(1,3-Dimethyl-1H-pyrazol-4-yl)-8-[5-(1-ethoxy-1-methyl-ethyl)-pyridin-3-yl]-3-methyl-1,3-dihydro-imidazo[4,5-c]quinolin-2-one] | 7.10 | 7.96 | 7.14
5 | C=CCn1c(=O)n(-c2cn(C)nc2C)c2c3cc(-c4cncc(N)c4)ccc3ncc21 [Example 246, 3-Allyl-8-(5-amino-pyridin-3-yl)-1-(1,3-dimethyl-1H-pyrazol-4-yl)-1,3-dihydro-imidazo[4,5-c]quinolin-2-one] | 6.83 | 7.39 | 6.64
6 | CCN(CC)C(=O)Cn1cc(-n2c(=O)n(C)c3cnc4ccc(-c5cnc(N6CCCC6)nc5)cc4c32)c(C)n1 [Example 247.1, N,N-Diethyl-2-{3-methyl-4-[3-methyl-2-oxo-8-(2-pyrrolidin-1-yl-pyrimidin-5-yl)-2,3-dihydro-imidazo[4,5-c]quinolin-1-yl]-pyrazol-1-yl}-acetamide] | 7.89 | 8.52 | 7.55
